Data as given in patent publication US7910597B2, “Substituted quinazolines” (Shire LLC, priority 2006, dated 2011).
Structures can show the parent of a compound that is named as a salt. Where two headings read alike, the source gives them in different places. Values belong to the compound of their own block, whether it stands above or below them.

What was measured:
[1] = tested on: megakaryocytopoiesis (human cell-line); experiment: In vitro anti-megakaryocytic activity in a model of megakaryocytopoiesis (human cell-line); type: cell-based
Experimental: Assessment of the in vitro anti-megakaryocytic activity—and potentially therefore the platelet lowering capability—of the 3-substituted analogues of anagrelide was conducted using a well established model of megakaryocytopoiesis (Cohen-Solal et at, Thromb. Haemost. 1997, 78:37-41 and Cramer et al, Blood, 1997, 89:2336-46). It can be readily seen that with anagrelide the benefit ratio (therapeutic to adverse effects) was comparatively low at 0.024:1 (after accounting for the predominant exposure to the cardioactive metabolite in vivo).

[2] = target: human phosphodiesterase III (PDE III); experiment: In vitro PDE III inhibition (human enzyme); type: biochemical
[3] = Solubility in test media, saturated solutions, HPLC; type: physicochemical; settings: ca. 20° C.; for solubility at 20 min: thermodynamic from solid
Experimental: Solubility studies were carried out on a number of anagrelide derivatives according to the present invention in various test media. The test media were; • a) singly distilled water (pH 5.0)—note no attempt was made to remove dissolved CO2. • b) 50 mM ammonium formate (pH 7.9) • c) 0.1 M hydrochloric acid (pH 0.6)
Calibration plots of HPLC peak area vs. concentration were obtained in MeOH or MeOH/DMSO over the range 1000-1 μg/ml for each substance at a temperature 20-22° C. The HPLC method used a reverse phase C18 column with a water (0.6% formic acid) and acetonitrile gradient. For the solubility studies, saturated solutions were prepared by dissolving in the desired medium with the aid of an ultrasonic bath for 20 minutes and the excess solid removed by centrifugation. The concentration of the substance in the supernatant liquid was determined from the measured peak area.

[4] = target: human phosphodiesterase III (PDE III); settings: background, cited from earlier work; for IC50: read-out: IC50 as PDE III inhibitor
[5] = In vitro metabolic stability in dog hepatocytes; type: in vitro ADME
Source text: (§1) This comparatively longer half-life for 3,3 dimethyl anagrelide observed in the dog was mirrored in an in vitro metabolic stability study in which it was clearly much more metabolically stable than anagrelide (see table below). Hepatic metabolism is known to be the principal mechanism of clearance of anagrelide in both animals and in man.

[6] = tested on: erythroid or myelomonocytic differentiation; settings: stimulated by erythropoietin or granulocyte-macrophage colony-stimulating factor; cited from earlier work
dog heart rate = experiment: In vivo cardiovascular effects on dog heart rate
Source text: (§2) A comparison of the in vivo cardiovascular effects of anagrelide, its active metabolite and a representative example of an improved analogue shown in the table below:—

heart rate = experiment: In vivo cardiovascular effects on dog heart rate; settings: in vivo
Source text: as §2

[7] = In vitro metabolic stability in human hepatocytes; type: in vitro ADME
Source text: as §1

[8] = cited from earlier work
[9] = Pharmacokinetics in the conscious dog model; type: in vivo; settings: geometric mean ± % CV
Experimental: A comparison of the pharmacokinetic profile in the dog of anagrelide and a representative 3-substituted analogue is shown below:—
Comparative Pharmacokinetics of Anagrelide, its Resultant Active Metabolite and a Representative 3-Substituted Analogue Follow 1 mg/kg iv in the Conscious Dog Model

[10] = tested on: megakaryocytopoiesis (human cell-line); settings: background; cited from earlier work
[11] = Example 1 table, read-out: IC50 for anti-megakaryocytic (platelet lowering) activity
[12] = Example 1 table, read-out: IC50 for PDE III inhibition (cardiovascular effects)
[13] = read-out: In vitro IC50 for PDE III inhibition (human enzyme)
[14] = read-out: In vitro IC50 for anti-megakaryocytic effects (human cell-line)

SMILES: Cc1[nH]c(=O)c(C#N)cc1-c1ccncc1 [milrinone]
IC50 [4]: 170 to 350 nM

SMILES: Br.CC1(C)C(=O)NC2=Nc3ccc(Cl)c(Cl)c3CN21 [3,3-Dimethylanagrelide hydrobromide]
Solubility in hydrochloric acid (0.1M, pH 0.6) ([3]; 0.1M HCl, pH 0.6): 215 μg mL^−1
Solubility in ammonium formate (50 mM, pH 7.9) ([3]; ammonium formate 50 mM, pH 7.9): 4 μg mL^−1
Solubility in water (pH 5.0) ([3]; singly distilled water, pH 5.0): 20 μg mL^−1

SMILES: CC1(C)C(=O)NC2=Nc3ccc(Cl)c(Cl)c3CN21 [3,3 dimethyl anagrelide, 3,3-dimethylanagrelide]
In vitro "half-life" in dog hepatocytes [5]: No apparent degradation
In vivo ED20 for effects on dog heart rate (dog heart rate): 2,512 μg/kg
In vivo ED50 for effects on dog heart rate (dog heart rate): 3,557 ug/kg μg/kg
In vitro "half-life" in human hepatocytes [7]: 22.8 h
IC50 [1, 11]: 164 nM
IC50 [1, 14]: 166 nM
IC50 [2, 12]: 166 nM
IC50 [2, 13]: 164 nM
AUC(0-t) ([9]; 1 mg/kg): 1903 ± 47 ng·h/mL
Cmax ([9]; 1 mg/kg): 167 ± 33 ng/mL
T1/2 ([9]; 1 mg/kg): 9.39 h
CL ([9]; after 1 mg/kg iv): 2.97 ± 0.765 mL/min/kg
Vss ([9]; after 1 mg/kg iv): 1.967 ± 0.024 L/kg

SMILES: C[C@@H]1C(=O)NC2=Nc3ccc(Cl)c(Cl)c3CN21 [(R)-3-methyl anagrelide]
Anti-megakaryocytic activity (in words) [1]: good anti-megakaryocytic activity
PDE III inhibitory activity (in words) [2]: significantly reduced PDE III inhibition relative to 3-OH anagrelide

SMILES: C[C@H]1C(=O)NC2=Nc3ccc(Cl)c(Cl)c3CN21 [(S)-3-methyl anagrelide]
Anti-megakaryocytic activity (in words) [1]: good anti-megakaryocytic activity
PDE III inhibitory activity (in words) [2]: significantly reduced PDE III inhibition relative to 3-OH anagrelide

SMILES: O=C1[N-]C2=Nc3ccc(Cl)c(Cl)c3CN2C12CC2.[Na+] [3,3,Spiro-Cyclopropyl-anagrelide sodium salt]
Solubility in hydrochloric acid (0.1M, pH 0.6) ([3]; 0.1M HCl, pH 0.6): 28 μg mL^−1
Solubility in ammonium formate (50 mM, pH 7.9) ([3]; ammonium formate 50 mM, pH 7.9): 1 μg mL^−1
Solubility in water (pH 5.0) ([3]; singly distilled water, pH 5.0): 542 μg mL^−1

SMILES: CC1(C)C(=O)[N-]C2=Nc3ccc(Cl)c(Cl)c3CN21.[Na+] [3,3-Dimethylanagrelide sodium salt]
Solubility in hydrochloric acid (0.1M, pH 0.6) ([3]; 0.1M HCl, pH 0.6): 212 μg mL^−1
Solubility in ammonium formate (50 mM, pH 7.9) ([3]; ammonium formate 50 mM, pH 7.9): 6 μg mL^−1
Solubility in water (pH 5.0) ([3]; singly distilled water, pH 5.0): 409 μg mL^−1

Now from value to compound, other results behind:

IC50 [1, 11]: 547 nM
SMILES: O=C1NC2=Nc3ccc(Cl)c(Cl)c3CN2C12CC2 [3-spirocyclo propyl anagrelide, 3,3,spiro-cyclopropyl-anagrelide]
IC50 [2, 12]: 797 nM

Solubility in hydrochloric acid (0.1M, pH 0.6) ([3]; 0.1M HCl, pH 0.6): 35 μg mL^−1
Solubility in ammonium formate (50 mM, pH 7.9) ([3]; ammonium formate 50 mM, pH 7.9): 1 μg mL^−1
Solubility in water (pH 5.0) ([3]; singly distilled water, pH 5.0): 2 μg mL^−1
SMILES: Br.O=C1NC2=Nc3ccc(Cl)c(Cl)c3CN2C12CC2 [3,3-spiro-Cyclopropyl-anagrelide hydrobromide]

Solubility in hydrochloric acid (0.1M, pH 0.6) ([3]; 0.1M HCl, pH 0.6): 189 μg mL^−1
Solubility in ammonium formate (50 mM, pH 7.9) ([3]; ammonium formate 50 mM, pH 7.9): 39 μg mL^−1
Solubility in water (pH 5.0) ([3]; singly distilled water, pH 5.0): 1830 μg mL^−1
SMILES: C=c1c(=O)[n-]c2n1Cc1c(ccc(Cl)c1Cl)N=2.[Na+] [3-Methyleneanagrelide Na salt]

half-life [5]: 1.25 h
half-life [7]: 6.62 h
IC50 ([1]; Homo sapiens, Platelet, Example 1 table, read-out: IC50 for anti-megakaryocytic (platelet lowering) activity): 27 nM
IC50 ([1]; Homo sapiens, read-out: In vitro IC50 for anti-megakaryocytic effects (human cell-line)): 26 nM
IC50 [2, 13]: 29 nM
clearance ([9]; in vivo, after 1 mg/kg iv): 19.3 mL/min/kg
Vd ([9]; in vivo, after 1 mg/kg iv, read-out: Vss): 1.011 ± 0.0038 L/kg
half-life ([9]; in vivo, intravenous, 1 mg/kg): 1.37 h
AUC(0-t) ([9]; in vivo, intravenous, 1 mg/kg, read-out: AUC(0-t)): 101 ± 15 ng·h/mL
Cmax ([9]; in vivo, intravenous, 1 mg/kg, read-out: Cmax): 48.1 ± 21 ng/mL
SMILES: O=C1CN2Cc3c(ccc(Cl)c3Cl)N=C2N1 [Anagrelide, 6,7-dichloro-1,5-dihydroimidazo[2,1-b]-quinazolin-2(3H)-one hydrochloride monohydrate]
Effect on erythroid or myelomonocytic differentiation (in words) [6]: does not affect erythroid or myelomonocytic differentiation
In vivo ED20 for effects on dog heart rate (dog heart rate): 376 µg/kg
ED50 (heart rate): 0.986 mg/kg
IC50 [2, 12]: 32 nM
First pass effect ([8]; background): > 50%
IC50 [4]: ~29 nM

solubility at 20 min ([3]; 50 mM ammonium formate, aqueous buffer, ammonium formate 50 mM, pH 7.9, read-out: Solubility in ammonium formate (50 mM, pH 7.9)): 10 µg/mL
solubility at 20 min ([3]; 0.1 M hydrochloric acid, simulated gastric fluid, 0.1M HCl, pH 0.6, read-out: Solubility in hydrochloric acid (0.1M, pH 0.6)): 169 µg/mL
solubility at 20 min ([3]; singly distilled water, pH 5.0, read-out: Solubility in water (pH 5.0)): 11 µg/mL
SMILES: O=C1CN2Cc3c(ccc(Cl)c3Cl)N=C2N1 [Anagrelide hydrochloride, 6,7-dichloro-1,5-dihydroimidazo[2,1-b]-quinazolin-2(3H)-one hydrochloride monohydrate, reference compound]

IC50 [1, 11]: 44 nM
IC50 [1, 14]: 44 nM
IC50 [2, 13]: 0.7 nM
AUC(0-t) ([9]; 1 mg/kg): 179 ± 14 ng·h/mL
Cmax ([9]; 1 mg/kg): 60.1 ± 14 ng/mL
T1/2 ([9]; 1 mg/kg): 1.57 ± 24 h
SMILES: O=C1NC2=Nc3ccc(Cl)c(Cl)c3CN2C1O (stereo not shown) [3-hydroxy anagrelide, 3-hydroxyanagrelide]
In vivo ED20 for effects on dog heart rate (dog heart rate): 7.1 µg/kg
In vivo ED50 for effects on dog heart rate (dog heart rate): 11.72 ug/kg μg/kg
Inhibition of megakaryocytopoiesis relative to parent drug (in words) [10]: no more potent than the parent drug
IC50 [2, 12]: 0.7 nM
In vivo exposure relative to parent drug ([8]; after anagrelide treatment): 2-3 fold
Typical half-life ([8]; background, patients): 2.5 h
Potency as PDE III inhibitor relative to anagrelide ([4]; more potent than anagrelide): over 40 fold

Solubility in hydrochloric acid (0.1M, pH 0.6) ([3]; 0.1M HCl, pH 0.6): 43 μg mL^−1
Solubility in ammonium formate (50 mM, pH 7.9) ([3]; ammonium formate 50 mM, pH 7.9): 5 μg mL^−1
Solubility in water (pH 5.0) ([3]; singly distilled water, pH 5.0): 9 μg mL^−1
SMILES: C=c1c(=O)[nH]c2n1Cc1c(ccc(Cl)c1Cl)N=2 [3-Methyleneanagrelide, 3-methyleneanagrelide]
